Data as given in ChEMBL document CHEMBL4261569, “Identification of novel N-acetylcysteine derivatives for the treatment of hepatocellular injury” (Medchemcomm, 2017).
The source made the active and inactive calls. The calls are words filed in the database; no cut-off is given here.

Experiments:
L02 [1] = assay: Cytoprotection against H2O2 induced cytotoxicity in human LO2 cells assessed as increase in cell viability preincubated for 24 hrs followed by H2O2 addition measured after 6 hrs by CCK-8 assay; format: functional, cell-based
L02 [2] = assay: Cytotoxicity against human LO2 cells assessed as reduction in cell viability after 24 hrs by CCK-8 assay; format: cell-based; conditions: l02, 24 h
[3] = Oral bioavailability in Sprague-Dawley rat at 20 mg/kg by LC-MS/MS analysis; format: ADME, organism-based; conditions: in vivo
L02 [4] = assay: Cytoprotection against APAP induced cytotoxicity in human LO2 cells assessed as decrease in MDA level at 100 mmol after 15 mins by lipid oxidation assay; format: functional, cell-based
[5] = AUC in Sprague-Dawley rat at 10 mg/kg, iv or 20 mg/kg, po by LC-MS/MS analysis; format: ADME, organism-based; conditions: in vivo
[6] = Terminal half life in Sprague-Dawley rat at 20 mg/kg, po by LC-MS/MS analysis; format: ADME, organism-based; conditions: in vivo, read-out: beta t1/2 (converted)
L02 [7] = assay: Cytoprotection against APAP induced cytotoxicity in human LO2 cells assessed as increase in cell viability preincubated for 24 hrs followed by […] hrs by CCK-8 assay; format: functional, cell-based
L02 [8] = assay: Cytoprotection against H2O2 induced cytotoxicity in human LO2 cells assessed as decrease in MDA level at 100 mmol after 15 mins by lipid oxidation assay; format: functional, cell-based
[9] = Apparent permeability across apical to basolateral side in human Caco2 cells at 10 uM after 1.5 hrs by LC-MS/MS analysis; format: ADME, cell-based; conditions: Caco-2
[10] = Cmax in Sprague-Dawley rat at 10 mg/kg, iv or 20 mg/kg, po by LC-MS/MS analysis; format: ADME, organism-based; conditions: in vivo
[11] = Efflux ratio of apparent permeability across basolateral to apical side over apical to basolateral side in human Caco2 cells at 10 uM after 1.5 hrs by LC-MS/MS analysis; format: ADME, cell-based; conditions: Caco-2
[12] = Apparent permeability across basolateral to apical side in human Caco2 cells at 10 uM after 1.5 hrs by LC-MS/MS analysis; format: ADME, cell-based; conditions: Caco-2
[13] = Terminal half life in iv dosed human plasma; format: ADME, organism-based; conditions: read-out: beta t1/2 (converted)
[14] = Oral bioavailability in human; format: ADME, organism-based; conditions: in vivo
[15] = Drug excretion in iv dosed human; format: ADME, organism-based; conditions: in vivo, read-out: Drug excretion

Compound | Activity (L02 [1]) | Activity (L02 [8]) | also measured
CSC[C@H](NC(=O)c1ccccc1)C(=O)NC1CCCCC1 | Active | – | –
CCC(=O)N[C@@H](CSC)C(=O)OC(C)(C)C | inactive | – | Activity (L02 [2]): Toxic
COC(=O)[C@H](CSC)NC(=O)c1ccccc1 | inactive | – | –
CSC[C@H](NC(=O)c1ccc(F)cc1)C(=O)OC(C)(C)C | inactive | – | Activity (L02 [2]): Toxic
CSC[C@H](NC(=O)c1ccccc1)C(=O)OC(C)(C)C | inactive | – | Activity (L02 [2]): Toxic
CSC[C@H](NC(=O)c1ccccc1)C(=O)Nc1ccccc1 | Active | – | –
CSC[C@H](NC(=O)C1CCCCC1)C(=O)OC(C)(C)C | inactive | – | Activity (L02 [2]): Toxic
CSC[C@H](NC(C)=O)C(=O)NC1CCCCC1 | Active | Active | bioavailability [3]: 52.8%; Activity (L02 [4]): Active; AUC [5]: 3080 ng·h/mL; half-life [6]: 5.62 h; Activity (L02 [7]): Active; Papp A→B at 1.5 h, 10 µM [9]: 19.7 ×10⁻⁶ cm/s; Cmax [10]: 2140 ng/mL; efflux ratio at 1.5 h, 10 µM [11]: 1.11; Papp B→A at 1.5 h, 10 µM [12]: 21.8 ×10⁻⁶ cm/s
CCC(=O)N[C@@H](CSC)C(=O)O | Active | Active | –
COC(=O)[C@H](CSC)NC(C)=O | inactive | – | –
CSC[C@H](NC(C)=O)C(=O)Nc1ccccc1 | Active | Active | Activity (L02 [4]): Active; Activity (L02 [7]): inactive
CCC(=O)N[C@@H](CSC)C(=O)NC1CCCCC1 | Active | Active | Activity (L02 [4]): Active; Activity (L02 [7]): Active
CSC[C@H](NC(=O)c1ccc(F)cc1)C(=O)O | Active | Active | –
CC(=O)N[C@@H](CS)C(=O)O [ACETYLCYSTEINE] | – | Active | Activity (L02 [4]): Active; half-life [13]: 5.6 h; Papp A→B at 1.5 h, 10 µM [9]: < 1.09 ×10⁻⁶ cm/s; bioavailability [14]: < 5%; dose excreted [15]: 30%; Papp B→A at 1.5 h, 10 µM [12]: < 0.61 ×10⁻⁶ cm/s
COC(=O)[C@H](CSC)NC(=O)c1ccc(F)cc1 | inactive | – | –
CSC[C@H](NC(C)=O)C(=O)OC(C)(C)C | inactive | – | Activity (L02 [2]): Toxic
CSC[C@H](NC(=O)c1ccccc1)C(=O)O | Active | Active | –
CNC(=O)[C@H](CSC)NC(=O)c1ccccc1 | Active | inactive | –
CCC(=O)N[C@@H](CSC)C(=O)Nc1ccccc1 | Active | – | –
CSC[C@H](NC(=O)C1CCCCC1)C(=O)O | Active | Active | –
CCC(=O)N[C@@H](CSC)C(=O)NC | Active | – | –
COC(=O)[C@H](CSC)NC(=O)C1CCCCC1 | inactive | – | –
CSC[C@H](NC(C)=O)C(=O)O | Active | Active | –
CNC(=O)[C@H](CSC)NC(=O)C1CCCCC1 | Active | Active | –
CCC(=O)N[C@@H](CSC)C(=O)OC | inactive | – | –
